From patent US20030180924A1, “Formulation of certain pyrazolo [3,4,-d] pyrimidines as kinase modulators” (priority 2002, published 2003) come the findings set out here.

The term AUC denotes the area under the concentration-time curve, a measure of exposure. Broadly, the Tmax is the time at which the peak concentration occurs. As usually defined, the bioavailability is dose-corrected exposure relative to a reference, in per cent. Low values mean poor availability, high ones good availability. One may read the Cmax as the peak of the concentration-time curve. Broadly, the clearance is the rate of elimination divided by the concentration.

Each structure is given as a SMILES string. Where two headings read alike, the source gives them in different places.

A short description of data set [1]: Bioavailability testing, IP treatment (whole blood, LC/MS). Format: in vivo. The conditions noted are these: 0.793 mg/Kg, male CD-1 mice; for AUC / Cmax: whole blood; for Tmax / bioavailability / half-life / Cmax: mouse, in vivo; for half-life: read-out: T½ (converted). As to the method: (§1) Compositions comprising the free base of 1-Na-PP1 and 1-NM-PP1 (Control) and the hydrochloride salt of 1-Na-PP1 and 1-NM-PP1 formulated with Vitamin E TPGS are administered to male CD-1 mice intraperitoneally (IP) and intravenously (IV). Whole blood samples were collected from three animals per time point and prior via cardiac puncture into EDTA tubes and placed on wet ice. Samples were analyzed after drying and predissolution in 0.1:20:80 formic acid:methanol:water by liquid chromatography/mass spectrometry using an Xterra C182.5 micromenter particle size analytical column (15 mm×2.1 mm).

Data set [2] can be described thus: Bioavailability testing, IV treatment (whole blood, LC/MS). In kind it is in vivo. The conditions noted are these: male CD-1 mice; for AUC: whole blood; for clearance / Vd: mouse, in vivo; for Vd: read-out: Vdss. As to the method: as §1

Turning to `CC(C)(C)n1nc(-c2cccc3ccccc23)c2c(N)ncnc21` [1-Na-PP1 (Control), 1-tert-butyl-3-naphthalen-1-yl-1H-pyrazolo[3,4-d]pyrimidin-4-ylamine], in data set [1], the AUC/Dose came to 0.13 ng·h/mL/µg/kg, the AUC worked out at 99.37 ng·h/mL, the Tmax is 4.98 min and the bioavailability was 100%. Moreover, in data set [1], the half-life is 90.6 min and the highest level (Cmax) was 55 ng/mL. In data set [2] (0.269 mg/Kg), this molecule had an AUC/Dose of 0.12 ng·h/mL/µg/kg, a T½ of 27.6 min, an AUC of 32.14 ng·h/mL and a clearance of 133 mL/min/kg. For the same molecule, the Vd in data set [2] (0.269 mg/Kg) stood at 5.3 L/kg.
Turning to `CC(C)(C)n1nc(Cc2cccc3ccccc23)c2c(N)ncnc21` [1-NM-PP1 (Control)], in data set [1], the AUC/Dose stood at 0.16 ng·h/mL/µg/kg, the AUC was 134.84 ng·h/mL, the Tmax was found to be 4.98 min and the bioavailability worked out at 100%. Further, in data set [1], the half-life was 85.2 min and the peak level (Cmax) was 90.6 ng/mL. In data set [2] (0.793 mg/Kg), the AUC/Dose was determined as 0.13 ng·h/mL/µg/kg, the T½ was found to be 23.4 min, the AUC amounted to 37.08 ng·h/mL and the clearance amounted to 130 mL/min/kg. Also, the Vd in data set [2] (0.793 mg/Kg) worked out at 4.1 L/kg.
